# Experiments:
# 5HT2A receptor = target: T1, 5HT2A receptor (Homo sapiens, UniProt P28223); assay: 5HT2A receptor activation, FLIPR calcium response; format: cell-based; conditions: 10 μM, 5HT2A receptor CHO stable cell line
# T1 construct: expressed in transfected cells
# Method: FIG. 4. Activation of serotonin 5HT2A receptor with hPER1-MPP fusion peptide. (A). hPER1-MPP and TAT-PTD peptides were synthesized alone or in fusion with either the first intracellular loop I1 ([…] (SEQ ID NO:10)), or the C-terminal Transmembrane 7 domain. TM7 ([…] (SEQ ID NO:11) derived from the 5HT2A receptor, genebank accession number, M86841). Receptor activities was assayed using standard FLIPR analysis and measuring endogenous and exogenous Ca^+2 levels. Peptide designations are as follows: T (TAT-PTD), P (hPER1-MPP), I1 (intracellular loop 1), T-I1 (TAT-PTD-I1), P-I1 (hPER1-MPP-I1), TM7 (C-terminal domain), TTM7 (TAT-PTD-TM7), PTM7 (hPER1-MPP-TM7), and S (Serotonin).
# FIG. 4 (B). Dose response of PTM7 (closed circles) and TTM7 (closed diamonds) peptides. Serotonin (control, open triangle) was used at the maximum receptor stimulatory concentration of 10 μM.
# One of the features of MPPs is their ability to cargo proteins and peptides into cells. We were successful in coupling hPER1-MPP to B-galactosidase and in delivering the fusion protein into cells in culture (data not shown), as has been described by Fawells et al., 1994 (Fawell, S., et al., Proc Natl Acad Sci USA. 91, 664-668 (1994)). However, to further extend the functional utility of MPPs, we tested hPER1-MPP in fusion with a physiologically relevant and biologically active peptide. […]
# CHO cells [1] = assay: Membrane penetration (peptide internalization) assay of biotinylated synthetic peptides; format: cell-based, Chinese Hamster; conditions: for intracellular distribution / staining of internalized peptide: Streptavidin ALEXA or anti-Flag mAb staining; for cells penetrated by peptide: peptide 10 μM added to cells in culture
# Method: FIG. 2. Membrane penetration assay in CHO cells. N-terminal biotinylated synthetic peptides hPER1-PTD, Flag-hPER1-PTD, Flag-TAT-PTD (positive control), and Flag-Flag (negative control) were assayed for their ability to penetrate cellular membranes in living CHO cells in culture. The subcellular localization of internalized peptides was determined using a two color staining method, either Streptavidin-Alexa 594 (red) or anti-flag mAb. The third column is an overlay. Confocal microscopy was employed to further confirm intracellular and intranuclear localization. Single section of confocal imaging is shown.
# FIG. 3. Alanine scanning of hPER1-PDTs. Biotinylated hPER1-NPDs were synthesized with a single amino acid residue substitution at the indicated position with an alanine and assayed for membrane penetration in CHO cells. Cells were incubated for 10 minutes at 37 C. at a peptide concentration of 10 μM followed by washing, fixation, permeablization, and then detected with labeled Streptavidin Alexa-594 (red, 2 μg/ml) for 15 minutes at the RT. Control peptide was from hPER1 N-terminal amino acids residues 486-500.
# Peptides are synthesized by a commercial vendor (Bio Synthesis). For peptides internalization, cells are plated into two-well Lab-Tek coverslips (Nunc Inc.) at a density of 2×10^5 cells/well and cultured overnight. The peptides are dissolved in DMSO diluted to indicated concentration with PBS. The cell monolayers were incubated with the appropriate peptide/PBS solution at 1 μM standard concentration for 10 min at room temperature (RT) unless otherwise specified. For experiments at 4° C., the protocol was the same except that all incubations were performed at 4° C. until the end of the fixation procedure.
# The peptides are assayed for their ability to penetrate cellular membranes. Intracellular localization is assayed by direct staining with labeled Streptavidin ALEXA reagents or by indirect staining with anti-Flag mAb followed by the addition of labeled secondary antibodies.
# CHO cells [2] = assay: β-galactosidase cargo delivery into cells (X-gal staining); format: cell-based, Chinese Hamster; conditions: chemically linked conjugates
# Text: (§1) FIG. 6. hPER-PTD cargo's β-Galactosidase into cells: At least one feature of HIV TAT transducing peptide is its ability to cargo proteins into cells and tissues. We therefore sought to determine if hPER1 transducing peptide could cargo beta galactosidase into cells. To perform this experiment, we followed a protocol by Frankel et al. 1989 (19):7397-401, whereby, we chemically linked hPER1-PTD or hPER-PTD R7A to full length β-galactosidase and assayed for the ability of these conjugates and beta-galactosidase protein alone to transduce into CHO cells.
# as §1, with “At” for “FIG. 6. hPER-PTD cargo's β-Galactosidase into cells: At”, “al. PNAS” for “al.”, “R7A (with Ala replacing Arg^7)” for “R7A”
# T1 sequence (P28223 whole entry): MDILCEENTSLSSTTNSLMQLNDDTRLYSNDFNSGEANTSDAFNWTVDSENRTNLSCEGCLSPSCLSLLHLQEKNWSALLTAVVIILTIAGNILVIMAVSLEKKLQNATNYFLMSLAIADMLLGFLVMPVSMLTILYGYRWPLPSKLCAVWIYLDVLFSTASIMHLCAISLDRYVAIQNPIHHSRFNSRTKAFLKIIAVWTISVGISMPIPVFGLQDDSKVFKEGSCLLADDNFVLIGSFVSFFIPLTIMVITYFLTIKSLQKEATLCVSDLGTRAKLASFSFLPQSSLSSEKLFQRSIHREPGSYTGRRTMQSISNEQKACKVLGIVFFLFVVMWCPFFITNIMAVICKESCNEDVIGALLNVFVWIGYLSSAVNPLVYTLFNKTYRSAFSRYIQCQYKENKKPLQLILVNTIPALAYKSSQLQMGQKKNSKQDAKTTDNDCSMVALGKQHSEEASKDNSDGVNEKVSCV
compound,measurement,setting,value
NCCc1c[nH]c2ccc(O)cc12 [serotonin],"5HT2A receptor signaling, calcium response",5HT2A receptor,receptor signaling is activated
GMDYKDDDDKGSRRHHCRSKAKRSHH [Flag-hPER1],intracellular distribution / staining of internalized peptide,CHO cells [1],"diffusely distributed throughout the cytoplasm, but concentrated within subnuclear domains"
same,cells penetrated by peptide,CHO cells [1],100%
GKKKRKLSNRESAKRSR [beta Zip TF],"membrane penetrating ability in words (relative to wild-type hPER1-MPP, TAT-PTD or negative control)",CHO cells [1],not all NLSs are PTDs
β-galactosidase protein: full length β-galactosidase alone,"delivery of β-galactosidase into cells (enzymatic activity, blue color after X-gal)",CHO cells [2],no blue staining reactivity
"GDPKKKRKV [SV40, reference compound]","membrane penetrating ability in words (relative to wild-type hPER1-MPP, TAT-PTD or negative control)",CHO cells [1],not all NLSs are PTDs
S R R H H C A S K A K R S R H H (SRRHHCASKAKRSRHH) [R7A],"membrane penetrating ability in words (relative to wild-type hPER1-MPP, TAT-PTD or negative control)",CHO cells [1],reduced the detectable cytological signal to that observed for the negative control peptides
GKHRHERGHHRDRRER [Cyclin L ania-6a],"membrane penetrating ability in words (relative to wild-type hPER1-MPP, TAT-PTD or negative control)",CHO cells [1],not all NLSs are PTDs
"SRRHHCRSKAKRSRHH [hPER1-MPP, N-terminally biotinylated peptide of hPER1 amino acids 830-845]","membrane penetrating ability in words (relative to wild-type hPER1-MPP, TAT-PTD or negative control)",CHO cells [1],efficiencies similar to the TAT-PTD peptide
same,time of internalization,CHO cells [1],≤ 5 min
same,intracellular distribution / staining of internalized peptide,CHO cells [1],"diffusely distributed throughout the cytoplasm, but concentrated within subnuclear domains"
same,cells penetrated by peptide,CHO cells [1],100%
"GMDYKDDDDKGYGRKKKRRQRRR [Flag-TAT, reference compound]",intracellular distribution / staining of internalized peptide,CHO cells [1],"diffusely distributed throughout the cytoplasm, but concentrated within subnuclear domains"
same,cells penetrated by peptide,CHO cells [1],100%
GRRERNKMAAAKCRNRRR [C-FOS],"membrane penetrating ability in words (relative to wild-type hPER1-MPP, TAT-PTD or negative control)",CHO cells [1],not all NLSs are PTDs
GKKTGKNRKLKSKRVKPRD [hPER2],"membrane penetrating ability in words (relative to wild-type hPER1-MPP, TAT-PTD or negative control)",CHO cells [1],not all NLSs are PTDs
"KTYRSAFSRYIQYKENKKPLQLI [TM7, C-terminal Transmembrane 7 domain peptide of the 5HT2A receptor]","5HT2A receptor signaling, calcium response",5HT2A receptor,TM7 alone nor any of the other peptides were able to generate a calcium response
R R H H C R S K A K R S R (RRHHCRSKAKRSR) [hPER1-PTD13],"membrane penetrating ability in words (relative to wild-type hPER1-MPP, TAT-PTD or negative control)",CHO cells [1],little overall effect on the positive membrane penetrating potential
"GMDYKDDDDKGMDYKDDDDK [Flag, reference compound]",intracellular distribution / staining of internalized peptide,CHO cells [1],only barely discernible background staining

# From patent US7754678B2, “Membrane penetrating peptides and uses thereof” (Aventis Pharmaceuticals Inc., priority 2000, dated 2010)
